# pEC50, pIC50: −log10 of the molar value.
# Key:
# [1] = target: T1, HCV NS3/4A protease complex (Hepatitis C virus genotype 1a, UniProt P27958, C1454S/C1711G); test: FRET peptide assay to monitor HCV NS3/4A proteolytic activity; type: biochemical; settings: recombinant NS3/4A protease complex, strain not stated
# T1 construct: DNA encoding the recombinant HCV NS3/4A protease complex (amino acids 1027 to 1711) for these strains; inferred from the pET21b vector and Ni-NTA purification; made in house; host or cells: Escherichia coli BL21 (DE3)
# T1 sequence (P27958 1027-1711 C1454S/C1711G, one chain of several): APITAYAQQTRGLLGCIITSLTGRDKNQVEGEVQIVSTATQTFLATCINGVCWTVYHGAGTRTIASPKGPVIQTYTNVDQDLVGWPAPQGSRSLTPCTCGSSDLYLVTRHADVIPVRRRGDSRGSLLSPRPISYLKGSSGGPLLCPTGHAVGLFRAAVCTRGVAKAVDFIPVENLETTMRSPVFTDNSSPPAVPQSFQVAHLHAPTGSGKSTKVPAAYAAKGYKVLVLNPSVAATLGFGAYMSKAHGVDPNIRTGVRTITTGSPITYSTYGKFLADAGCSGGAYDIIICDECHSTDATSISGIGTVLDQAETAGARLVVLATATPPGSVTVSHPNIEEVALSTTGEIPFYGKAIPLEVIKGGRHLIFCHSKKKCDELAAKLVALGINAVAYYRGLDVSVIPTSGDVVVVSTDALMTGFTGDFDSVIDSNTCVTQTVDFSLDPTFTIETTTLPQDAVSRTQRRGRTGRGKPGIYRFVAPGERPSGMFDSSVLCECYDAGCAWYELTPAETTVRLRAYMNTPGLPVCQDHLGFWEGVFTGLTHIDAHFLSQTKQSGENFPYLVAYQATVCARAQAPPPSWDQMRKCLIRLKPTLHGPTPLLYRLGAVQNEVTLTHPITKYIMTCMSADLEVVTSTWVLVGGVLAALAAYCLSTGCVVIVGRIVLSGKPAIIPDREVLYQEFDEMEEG
# Text: HCV NS3 protease complexes, derived from the BMS strain, H77 strain or J4L6S strain, were generated, as described below. These purified recombinant proteins were generated for use in a homogeneous assay (see below) to provide an indication of how effective compounds of the present disclosure would be in inhibiting HCV NS3 proteolytic activity.
# Serum from an HCV-infected patient was obtained from Dr. T. Wright, San Francisco Hospital. An engineered full-length cDNA (compliment deoxyribonucleic acid) template of the HCV genome (BMS strain) was constructed from DNA fragments obtained by reverse transcription-PCR (RT-PCR) of serum RNA (ribonucleic acid) and using primers selected on the basis of homology between other genotype 1a strains. From the determination of the entire genome sequence, a genotype 1a was assigned to the HCV isolate according to the classification of Simmonds et al. (See P Simmonds, K A Rose, S Graham, S W Chan, F McOmish, B C Dow, E A Follett, P L Yap and H Marsden, J. Clin. Microbiol., 31(6), 1493-1503 (1993)). […] The infectious clones, H77 (1a genotype) and J4L6S (1b genotype) were obtained from R. Purcell (NIH) and the sequences are published in Genbank (AAB67036, see Yanagi, M., Purcell, R. H., Emerson, S. U. and Bukh, J. Proc. Natl. Acad. Sci. U.S.A. 94(16), 8738-8743 (1997); AF054247, see Yanagi, M., St Claire, M., Shapiro, M., Emerson, S. U., Purcell, R. H. and Bukh, J., Virology 244 (1), 161-172. (1998)).
# The H77 and J4L6S strains were used for production of recombinant NS3/4A protease complexes. DNA encoding the recombinant HCV NS3/4A protease complex (amino acids 1027 to 1711) for these strains was manipulated as described by P. Gallinari et al. (see Gallinari P, Paolini C, Brennan D, Nardi C, Steinkuhler C, De Francesco R. Biochemistry. 38(17):5620-32, (1999)). Briefly, a three-lysine solubilizing tail was added at the 3′-end of the NS4A coding region. The cysteine in the P1 position of the NS4A-NS4B cleavage site (amino acid 1711) was changed to a glycine to avoid the proteolytic cleavage of the lysine tag. Furthermore, a cysteine to serine mutation was introduced by PCR at amino acid position 1454 to prevent the autolytic cleavage in the NS3 helicase domain. The variant DNA fragment was cloned in the pET21b bacterial expression vector (Novagen) and the NS3/4A complex was expressed in Escherichia coli strain BL21 (DE3) (Invitrogen) following the protocol described by P. Gallinari et al. (see Gallinari P, Brennan D, Nardi C, Brunetti M, Tomei L, Steinkuhler C, De Francesco R., J Viral. 72(8):6758-69 (1998)) with modifications. Briefly, the NS3/4A protease complex expression was induced with 0.5 millimolar (mM) Isopropyl β-D-1-thiogalactopyranoside (IPTG) for 22 hours (h) at 20° C. […]
# [2] = tested on: HCV replicon in HUH-7 cells; test: HCV replicon FRET assay (confirmed in replicon luciferase reporter assay); type: cell-based; settings: Hepatitis C virus, 96 h, HUH-7 cells expressing HCV 1b replicon, 4 days
# Text: An HCV replicon whole cell system was established as described by Lohmann V, Korner F, Koch J, Herian U, Theilmann L, Bartenschlager R., Science 285(5424):110-3 (1999). This system enabled us to evaluate the effects of our HCV Protease compounds on HCV RNA replication. Briefly, using the HCV strain 1b sequence described in the Lohmann paper (Assession number: AJ238799), an HCV cDNA was synthesized by Operon Technologies, Inc. (Alameda, Calif.), and the full-length replicon was then assembled in plasmid pGem9zf(+) (Promega, Madison, Wis.) using standard molecular biology techniques. The replicon consists of (i) the HCV 5′ UTR fused to the first 12 amino acids of the capsid protein, (ii) the neomycin phosphotransferase gene (neo), (iii) the IRES from encephalomyocarditis virus (EMCV), and (iv) HCV NS3 to NS5B genes and the HCV 3′ UTR. Plasmid DNAs were linearized with ScaI and RNA transcripts were synthesized in vitro using the T7 MegaScript transcription kit (Ambion, Austin, Tex.) according to manufacturer's directions. In vitro transcripts of the cDNA were transfected into the human hepatoma cell line, HUH-7. […] Resulting cell lines were characterized for positive and negative strand RNA production and protein production over time.
# The HCV replicon FRET assay was developed to monitor the inhibitory effects of compounds described in the disclosure on HCV viral replication. HUH-7 cells, constitutively expressing the HCV replicon, were grown in Dulbecco's Modified Eagle Media (DMEM) (Gibco-BRL) containing 10% Fetal calf serum (FCS) (Sigma) and 1 mg/ml G418 (Gibco-BRL). Cells were seeded the night before (1.5×10^4 cells/well) in 96-well tissue-culture sterile plates. Compound and no compound controls were prepared in DMEM containing 4% FCS, 1:100 Penicillin/Streptomysin (Gibco-BRL), 1:100 L-glutamine and 5% DMSO in the dilution plate (0.5% DMSO final concentration in the assay). Compound/DMSO mixes were added to the cells and incubated for 4 days at 37° C. After 4 days, cells were first assessed for cytotoxicity using alamar Blue (Trek Diagnotstic Systems) for a CC50 reading. The toxicity of compound (CC50) was determined by adding 1/10 volume of alamar Blue to the media incubating the cells. After 4 h, the fluorescence signal from each well was read, with an excitation wavelength at 530 nm and an emission wavelength of 580 nm, using the Cytofluor Series 4000 (Perspective Biosystems). Plates were then rinsed thoroughly with Phosphate-Buffered Saline (PBS) (3 times 150 μl).
# As a secondary assay, EC50 determinations from the replicon FRET assay were confirmed in a replicon luciferase reporter assay. […] Following 4 days in a 37° C./5% CO2 incubator, cells were analyzed for Renilla Luciferase activity using the Promega Dual-Glo Luciferase Assay System. […]
# [3] = tested on: HCV; settings: combination therapy; cited from earlier work
Molecule,pIC50 [1],pEC50 [2],pIC50 ([1]; class symbols),pEC50 ([2]; class symbols),"sustained efficacy, share of patients [3]"
"C=C[C@@H]1C[C@]1(NC(=O)[C@@H]1C[C@@]2(c3ccc(-c4ccccc4)cc3)CN1C(=O)[C@@H](NC(=O)OC(C)(C)C)CCCCC/C=C/CS2)C(=O)NS(=O)(=O)C1CC1 [Example 1, tert-butyl (3S,13R,15S,E)-13-(biphenyl-4-yl)-15-((1R,2S)-1-(cyclopropylsulfonylcarbamoyl)-2-vinylcyclopropylcarbamoyl)-2-oxo-12-thia-1-azabicyclo[11.2.1]hexadec-9-en-3-ylcarbamate]",8.30,7.12,,,
"C=C[C@@H]1C[C@]1(NC(=O)[C@@H]1C[C@@]2(c3ccc(-c4ccccc4)cc3)CN1C(=O)[C@@H](NC(=O)OC(C)(C)C)CCCCCC/C=C/CS2)C(=O)NS(=O)(=O)C1CC1 [Example 2, tert-butyl (3S,14R,16S,E)-14-(biphenyl-4-yl)-16-((1R,2S)-1-(cyclopropylsulfonylcarbamoyl)-2-vinylcyclopropylcarbamoyl)-2-oxo-13-thia-1-azabicyclo[12.2.1]heptadec-10-en-3-ylcarbamate]",,,7.52 to 8.30,6.00 to 6.30,
"C=C[C@@H]1C[C@]1(NC(=O)[C@@H]1C[C@@]2(c3ccc(-c4ccccc4)cc3)CN1C(=O)[C@@H](NC(=O)OC(C)(C)C)CCCCCCCCCS2)C(=O)NS(=O)(=O)C1CC1 [Example 3, tert-butyl (3S,14R,16S)-14-(biphenyl-4-yl)-16-((1R,2S)-1-(cyclopropylsulfonylcarbamoyl)-2-vinylcyclopropylcarbamoyl)-2-oxo-13-thia-1-azabicyclo[12.2.1]heptadecan-3-ylcarbamate]",,,7.52 to 8.30,6.00 to 6.30,
"C=C[C@@H]1C[C@]1(NC(=O)[C@@H]1C[C@@]2(c3ccc(-c4ccccc4)cc3)CN1C(=O)[C@@H](NC(=O)OC(C)(C)C)CCCC/C=C/CS2)C(=O)NS(=O)(=O)C1CC1 [Example 4, tert-butyl (3S,12R,14S,E)-12-(biphenyl-4-yl)-14-((1R,2S)-1-(cyclopropylsulfonylcarbamoyl)-2-vinylcyclopropylcarbamoyl)-2-oxo-11-thia-1-azabicyclo[10.2.1]pentadec-8-en-3-ylcarbamate]",,,7.00 to 7.51,6.00 to 6.30,
alpha-interferon and ribavirin,,,,,40%
